From patent US20150216806A1, “LAXATIVE COMPOSITIONS AND METHODS FOR TREATING CONSTIPATION AND RELATED GASTROINTESTINAL DISEASES AND CONDITIONS” (SALIX PHARMACEUTICALS, INC., priority 2012, published 2015)

Test system: patient with chronic constipation
Test: Example 7: case report, bisoxatin added to colchicine in chronic constipation
Type: in vivo, human
Details: 1 mg in the morning and 1.5 in the evening; still missing a day here and there
Description: They were given added bisoxatin of 120 mg twice daily. […] They were going too well however and the bisoxatin had to be cut back 120 mg mane. For a week or so they were able to take the bisoxatin 120 in the morning and every second day 120 at night. They continued with the treatment for 3 or 4 weeks to date.

COc1cc2c(c(OC)c1OC)-c1ccc(OC)c(=O)cc1[C@@H](NC(C)=O)CC2 [colchicine]
response of constipation to colchicine alone: did not respond
